How the values were obtained:
[1] = Concentration of dissolved triterpenoid in the aqueous cyclodextrin solution (HPLC-ESI MS); assay type: physicochemical; conditions: 2-hydroxypropyl-γ-cyclodextrin, 50° C.
Method: (§1) Into the resulting colourless, viscous solution, soluble triterpene derivative (1.50 g) is added at once and the mixture is again vigorously stirred at the temperature of 50° C. […] After the triterpenoid is completely dissolved, the resulting clear solution is cooled to room temperature, filtered with a syringe filter (hydrophilic, pore size 0.22 μm) in order to be sterile and is placed in a refrigerator.
as §1, with “Method B: In a mixture of water (14.0 ml) and propylene glycol (6.0 ml), 2-hydroxypropyl-γ-cyklodextrin (7.00 g) is dissolved at the temperature of 50° C. under vigorous stirring. Into” for “Into”, “derivate (1.00” for “derivative (1.50”, “and” for “and the mixture”
Analytic Determination of the Concentration of Dissolved Triterpenoids in the Application Form and in Plasma Samples
(§2) HPLC-ESI MS technique was used or the determination of the concentration of dissolved triterpenoids. The samples were measured in one analytical batch with calibration solutions and blind control. The sample for the measurement was prepared from 50 μl of aqueous solution containing the inclusion compound by dilution with methanol to the volume of 10 ml. Subsequently, 10 μl of the sample solution after the first dilution is further diluted to 1 ml by the mobile phase. The blind control was obtained from 50 μl of pre-prepared aqueous solution of 2-hydroxypropyl-γ-cyklodextrin by dilution with methanol to 10 ml. Subsequently, 10 μl of the blind control solution after the first dilution is further diluted to 1 ml by methanol. Stock solutions of standards (concentration 0.2 mg/ml) were prepared by weighing 2.00 mg of analyte to 10 ml graduated flask and dissolution in methanol. The calibration samples were then prepared by dilution of the stock solution with mobile phase (0.4 μg/ml resp. 4 μg/ml).
The concentration was determined by comparison with standard and calculated to the original solution containing the inclusion compound.

[2] = Bioavailability and pharmacokinetic profile at oral administration to laboratory mice; assay type: in vivo, outbred mice CD-1; conditions: intragastric single dose 200 μl, soluble cyclodextrin formulation
Method: Determination of Bioavailability and Pharmacokinetic Profile at Oral Administration of the Compounds to Laboratory Mice
Soluble cyclodextrin formulations of terpenoid compounds, prepared in accordance with the aforementioned methods A or B, were administered without dilution to outbred mice CD-1 intragastrically (200 μl in a single dose) as aqueous solutions by injection syringe equipped with a gastric tube. Insoluble compounds were administered intragastrically as well (200 μl in a single dose), but in the form of aqueous suspensions in 0.5-1% carboxymethyl cellulose. In time intervals 2, 4, 6, 8, 12 and 24 h, blood was taken from the mice, the blood was centrifuged and the obtained plasma was subsequently analysed by HPLC-ESI MS technique.
as §2
The analysis was carried out at ODS Hypersil 125×2.1 mm, 5 um, SN 0745415X, Thermo EC column, ODS 4.0×3.0 mm precolumn, Phenomenex, mobile phase A—100 mmol/L aqueous solution of ammonium formate, pH is adjusted to 5 by formic acid, B—100 mmol/L methanolic solution of ammonium formate, column temperature: 25° C., linear gradient or isocratic elution, injected volume 30 μl. The concentration was determined by comparison with standard and calculated to the original solution containing the inclusion compound.

[3] = solution method A: water, saturated sodium hydrogencarbonate solution, ethanol

Row | SMILES | Conc. of dissolved substance [1, 3] | oral availability [2] | Conc. of dissolved substance ([1]; solution method B: water, propylene glycol)
1 | C=C(C)[C@@H]1CC[C@]2(C(=O)OCC)CC[C@]3(C)[C@H](CC[C@@H]4[C@@]5(C)CC[C@H](OC(=O)CCC(=O)O)C(C)(C)[C@@H]5CC[C@]43C)[C@@H]12 [2b] | 45000 µg/mL | prove oral availability | –
2 | C=C(C)[C@@H]1CC[C@]2(C(=O)OC)CC[C@]3(C)[C@H](CC[C@@H]4[C@@]5(C)CC[C@H](OC(=O)CCCC(=O)O)C(C)(C)[C@@H]5CC[C@]43C)[C@@H]12 [2i] | 51000 µg/mL | prove oral availability | –
3 | C=C(C=O)[C@@H]1CC[C@]2(C(=O)OCC)CC[C@]3(C)[C@H](CC[C@@H]4[C@@]5(C)CC[C@H](OC(=O)CCC(=O)O)C(C)(C)[C@@H]5CC[C@]43C)[C@@H]12 [3b] | 55000 µg/mL | prove oral availability | –
4 | CCOC(=O)[C@@]12CC[C@]3(C)[C@H](CC[C@@H]4[C@@]5(C)CC[C@H](O[C@@H]6O[C@H](CO)[C@@H](O)[C@H](O)[C@H]6O)C(C)(C)[C@@H]5CC[C@]43C)C1=C(C(C)C)C(=O)C2 [4i] | – | prove oral availability | 56000 µg/mL
5 | CC(C)C1=C2[C@H]3CC[C@@H]4[C@@]5(C)CC[C@H](OC(=O)CC(C)(C)C(=O)O)C(C)(C)[C@@H]5CC[C@@]4(C)[C@]3(C)CC[C@@]2(C(=O)O)CC1=O [4t] | 49000 µg/mL | prove oral availability | –
6 | COC(=O)[C@@]12CC[C@]3(C)[C@H](CC[C@@H]4[C@@]5(C)CC[C@H](OC(=O)CCC(=O)O)C(C)(C)[C@@H]5CC[C@]43C)C1=C(C(C)C)C(=O)C2=O [5a] | 50000 µg/mL | prove oral availability | –
7 | C=C(C)[C@@H]1CC[C@]2(C(=O)OCC(=O)O)CC[C@]3(C)[C@H](CC[C@@H]4[C@@]5(C)Cc6nccnc6C(C)(C)[C@@H]5CC[C@]43C)[C@@H]12 [6a] | 56000 µg/mL | prove oral availability | –
8 | CC1(C)CCC23CCC4(C)C(CCC5C6(C)CC(NC(=O)CCC(=O)O)C(O)C(C)(C)C6CCC54C)C2C1OC3 (stereo not shown) [8a] | 37000 µg/mL | prove oral availability | –

Source: US8653056B2, “Method of preparation of a soluble formulation of water-insoluble pentacyclic and tetracyclic terpenoids, a soluble formulation of a pentacyclic or tetracyclic terpenoid and a pharmaceutical composition containing this soluble formulation” (Univerzita Karlova V Praze, Prirodovedecka Fakulta, priority 2006, dated 2014)
